The values that follow are results of earlier work, collected in patent US9023853B2, “Janus kinase 2 (JAK2) inhibitor for the treatment of lupus” (Cephalon, Inc., priority 2010, dated 2015).

Read-outs that look alike come from different tables or passages of the source.

For this data set the following is noted: cited from earlier work.

Consider `CC1CCN(C(=O)CC#N)CC1N(C)c1ncnc2[nH]ccc12` (stereo in doubt) [tasocitinib], for which, under “doses of 5-30 mg twice per day”, the “effectiveness in rheumatoid arthritis” value is recorded as “effective”.

For `CCS(=O)(=O)N1CC(CC#N)(n2cc(-c3ncnc4[nH]ccc34)cn2)C1` [INCB028050], the “effectiveness in rheumatoid arthritis” value (doses of 4-10 mg once daily) is “effective”.
